Molecular target: T1, ERα protein (HiBiT-tagged) in ESR1_HiBiT KI MCF7 cells (Homo sapiens, UniProt P03372)
T1 sequence (P03372 1-595): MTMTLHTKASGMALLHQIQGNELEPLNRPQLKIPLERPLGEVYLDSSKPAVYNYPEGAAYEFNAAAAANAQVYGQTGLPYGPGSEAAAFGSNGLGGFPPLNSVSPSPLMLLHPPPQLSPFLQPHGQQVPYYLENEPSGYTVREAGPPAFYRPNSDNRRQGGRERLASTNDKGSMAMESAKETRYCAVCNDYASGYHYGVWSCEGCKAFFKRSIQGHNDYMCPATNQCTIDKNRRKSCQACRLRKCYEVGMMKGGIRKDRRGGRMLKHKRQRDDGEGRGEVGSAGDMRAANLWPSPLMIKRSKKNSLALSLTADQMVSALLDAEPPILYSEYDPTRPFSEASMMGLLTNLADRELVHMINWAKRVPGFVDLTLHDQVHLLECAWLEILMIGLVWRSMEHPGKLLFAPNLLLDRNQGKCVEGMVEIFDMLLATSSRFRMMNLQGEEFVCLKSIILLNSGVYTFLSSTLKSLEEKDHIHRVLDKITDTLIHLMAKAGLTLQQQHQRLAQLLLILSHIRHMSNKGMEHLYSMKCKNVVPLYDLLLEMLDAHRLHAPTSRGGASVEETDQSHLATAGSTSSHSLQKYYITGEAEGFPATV
Assay: Nano Glo HiBiT Lytic Degradation Assay
Type: cell-based
Conditions: 6 hours with compound, 14-point dose response 1:3, bell-shape curve fit, half-maximal effect of first Hill model, read-out: MCF7 ESR1 HiBiT - (DC50)
Method: Selected compounds of the present disclosure were tested in a Nano Glo HiBiT Lytic Degradation Assay to measure the level of ERα protein degradation in MCF7 cells.
Cell culture: ESR1_HiBiT KI MCF7 cells were maintained in growth media without antibiotics. Cells were maintained in exponential growth phase, between 40% and 90% confluency.
Cell seeding: Cells were counted using a Vi-Cell and seeded in a 384-well flat-bottom microplate (cell culture-treated) at 4000 cells/well in 25 μL of growth medium using a BioTek MultiFlo Multimode Dispenser. Plates were incubated for 24 h at 37° C., 5% CO2, >95% relative humidity.
Compound preparation: Compounds were screened as 14-point dose response curves 1:3 dilutions. DMSO is used as the vehicle control and all wells were normalized to the same final DMSO concentration (0.1% v/v). Compounds were dosed using an Echo Acoustic Liquid Handler, 25 nL of 1000× (10 mM top concentration) DMSO stock/well. Cells were incubated with compounds for 6 hours at 37° C., 5% CO2, >95% relative humidity. Each compound was run in duplicate.
Nano Glo HiBiT Lytic Degradation Assay: HiBiT-tagged ERα protein levels were quantified using a Nano Glo HiBiT Lytic Degradation Assay following the manufacturer's protocol. Briefly, the Nano-Glo® HiBiT Lytic Reagent was prepared by diluting the LgBiT Protein reagent (1:100) and the Nano-Glo® HiBiT Lytic Substrate (1:50) into Nano-Glo® HiBiT Lytic Buffer at room temperature. The 384-well microplate were equilibrated to room temperature and 25 μL of Nano-Glo® HiBiT Lytic Reagent was added to each well. Samples were mixed by placing the 384-well microplate on an orbital shaker for 10 minutes. Luminescence was measured using an EnVision 2105 Multimode Plate Reader.
Data processing and analysis: Background signal (wells containing growth medium without cells) was subtracted from individual relative light units (RLU) values and the resulting values were normalized to the DMSO control well values. Dose responses were analyzed with Genedata Screener® using a bell-shape curve fit and the concentrations corresponding to the half-maximal effect of the first Hill model were used as DC50 values.

O=C1CCC(N2Cc3cc(N4CCN(CC5CCN(c6ccc([C@@H]7c8ccc(O)cc8CC[C@@H]7c7ccccc7)cc6)CC5)CC4)c(F)cc3C2=O)C(=O)N1 (single isomer, unassigned) [II-38]
DC50: 1 nM

O=C1CC[C@H](N2Cc3cc(N4C[C@@H]5C[C@H]4CN5CC4CCN(c5ccc([C@H]6c7ccc(O)cc7CC[C@H]6c6ccccc6)cc5)CC4)ccc3C2=O)C(=O)N1 [II-8]
DC50: ≥ 10000 nM

Cn1c(=O)n(C2CCC(=O)NC2=O)c2cccc(N3CCN(CC4CCN(c5ccc([C@@H]6c7ccc(O)cc7CC[C@@H]6c6ccccc6)cc5)CC4)CC3)c21 (stereo partly drawn) [Compound I-191, 3-(4-(4-((1-(4-((1R,2S)-6-hydroxy-2-phenyl-1,2,3,4-tetrahydronaphthalen-1-yl)phenyl)piperidin-4-yl)methyl)piperazin-1-yl)-3-methyl-2-oxo-2,3-dihydro-1H-benzo[d]imidazol-1-yl)piperidine-2,6-dione]
DC50: 1.09 nM

O=C1CC[C@H](N2Cc3cc(N4CCN(C5CCN(c6ccc([C@H]7c8ccc(O)cc8CC[C@H]7c7ccccc7)cc6)CC5)CC4)ccc3C2=O)C(=O)N1 [II-30]
DC50: 100 nM

O=C1CC[C@H](N2Cc3cc(N4CCN(CC5CCN(c6ccc([C@H]7c8ccc(O)cc8C(F)(F)C[C@H]7C7CCCCC7)cc6)CC5)CC4)ccc3C2=O)C(=O)N1 [Compound I-98, (S)-3-(5-(4-((1-(4-((1S,2S)-2-cyclohexyl-4,4-difluoro-6-hydroxy-1,2,3,4-tetrahydronaphthalen-1-yl)phenyl)piperidin-4-yl)methyl)piperazin-1-yl)-1-oxoisoindolin-2-yl)piperidine-2,6-dione]
DC50: ≥ 10000 nM

O=C1CC[C@@H](N2Cc3cc(N4CCN(CC5CCN(c6ccc([C@@H]7c8ccc(O)cc8CC[C@@H]7c7ccc(F)cc7)cc6)CC5)CC4)ccc3C2=O)C(=O)N1 [II-110]
DC50: 0.88 nM

O=C1CCC(N2Cc3cc(N4CCN(CC5CCN(c6ccc([C@@H]7c8ccc(O)cc8C(F)(F)C[C@@H]7c7ccc(F)cc7)cc6)CC5)CC4)ccc3C2=O)C(=O)N1 (stereo partly drawn) [Compound I-309, 3-(5-(4-((1-(4-((1R,2S)-4,4-difluoro-2-(4-fluorophenyl)-6-hydroxy-1,2,3,4-tetrahydronaphthalen-1-yl)phenyl)piperidin-4-yl)methyl)piperazin-1-yl)-1-oxoisoindolin-2-yl)piperidine-2,6-dione]
DC50: 0.39 nM

O=C1CC[C@H](N2Cc3cc(N4CCN(CC5CCN(c6ccc([C@H]7c8ccc(O)cc8CO[C@H]7c7ccccc7)cc6F)CC5)CC4)ccc3C2=O)C(=O)N1 (single isomer, unassigned) [Compound I-382]
DC50: 2 nM

Cc1cc(N2CCC(CN3CCN(c4ccc5c(c4)CN([C@H]4CCC(=O)NC4=O)C5=O)CC3)CC2)ccc1[C@H]1c2ccc(O)cc2CC[C@H]1C1CCCCC1 [Compound I-140, (S)-3-(5-(4-((1-(4-((1S,2S)-2-cyclohexyl-6-hydroxy-1,2,3,4-tetrahydronaphthalen-1-yl)-3-methylphenyl)piperidin-4-yl)methyl)piperazin-1-yl)-1-oxoisoindolin-2-yl)piperidine-2,6-dione]
DC50: ≥ 10000 nM

O=C1CC[C@H](N2Cc3cc(N4CCN(C[C@@H]5CCN(c6ccc([C@@H]7c8ccc(O)cc8CC[C@@H]7c7ccccc7)cc6)C5)CC4)ccc3C2=O)C(=O)N1 (single isomer, unassigned) [II-32]
DC50: ≥ 10000 nM

O=C1CCC(c2ccc(N3CCC4(CCN(CC5CCN(c6ccc([C@@H]7c8ccc(O)cc8CC[C@@H]7c7ccccc7)cc6)CC5)CC4)CC3)cc2)C(=O)N1 (stereo partly drawn) [Compound I-180, 3-[4-[9-[[1-[4-[(1R,2S)-6-hydroxy-2-phenyl-tetralin-1-yl]phenyl]-4-piperidyl]methyl]-3,9-diazaspiro[5.5]undecan-3-yl]phenyl]piperidine-2,6-dione]
DC50: 1.3 nM

O=C1CC[C@H](N2Cc3cc(N4CCN(CC5CCN(c6ccc([C@H]7c8ccc(O)cc8CC[C@H]7c7ccccc7F)cc6)CC5)CC4)ccc3C2=O)C(=O)N1 (single isomer, unassigned) [II-25]
DC50: 1.17 nM

C[C@H]1C[C@H](c2ccccc2)[C@H](c2ccc(N3CCC(CN4CCN(c5ccc6c(c5)CN([C@H]5CCC(=O)NC5=O)C6=O)CC4)CC3)cc2)c2ccc(O)cc21 (single isomer, unassigned) [Compound I-420]
DC50: 2 nM

O=C1CC[C@H](N2Cc3cc(N4CCN(CC5CCN(c6ccc([C@H]7c8ccc(O)cc8CC[C@H]7c7ccc8c(c7)CC8)cc6)CC5)CC4)ccc3C2=O)C(=O)N1 (single isomer, unassigned) [Compound I-58]
DC50: 0.048 nM

O=C1CC[C@H](N2Cc3cc(N4CCN(CC5CCN(c6ccc(C7c8ccc(O)cc8CCN7C7CCCCC7)cc6)CC5)CC4)ccc3C2=O)C(=O)N1 (stereo partly drawn) [Compound I-9, (3S)-3-(5-(4-((1-(4-(2-cyclohexyl-6-hydroxy-1,2,3,4-tetrahydroisoquinolin-1-yl)phenyl)piperidin-4-yl)methyl)piperazin-1-yl)-1-oxoisoindolin-2-yl)piperidine-2,6-dione]
DC50: 11 nM

O=C1CCC(N2Cc3cc([C@H]4CCN(CC5CCN(c6ccc([C@@H]7c8ccc(O)cc8CC[C@@H]7c7ccccc7)cc6)CC5)C[C@@H]4F)ccc3C2=O)C(=O)N1 (single isomer, unassigned) [II-89]
DC50: 1100 nM

O=C1CC[C@H](N2Cc3cc(N4CCN(CC5CCN(c6ccc([C@H]7c8ccc(O)cc8CO[C@H]7c7ccccc7F)cc6)CC5)CC4)ccc3C2=O)C(=O)N1 [Compound I-348, (S)-3-(5-(4-((1-(4-((3R,4S)-3-(2-fluorophenyl)-7-hydroxyisochroman-4-yl)phenyl)piperidin-4-yl)methyl)piperazin-1-yl)-1-oxoisoindolin-2-yl)piperidine-2,6-dione]
DC50: ≥ 10000 nM

O=C1CC[C@H](N2Cc3cc(N4CCN(CC5CCN(c6ccc([C@H]7c8ccc(O)cc8CO[C@H]7c7ccc(F)cc7)cc6)CC5)CC4)ccc3C2=O)C(=O)N1 [Compound I-346, (S)-3-(5-(4-((1-(4-((3R,4S)-3-(4-fluorophenyl)-7-hydroxyisochroman-4-yl)phenyl)piperidin-4-yl)methyl)piperazin-1-yl)-1-oxoisoindolin-2-yl)piperidine-2,6-dione]
DC50: ≥ 10000 nM

C[C@H]1CN(CC2CCN(c3ccc([C@@H]4c5ccc(O)cc5CC[C@@H]4c4ccccc4)cc3)CC2)CCN1c1ccc2c(c1)CN([C@H]1CCC(=O)NC1=O)C2=O (single isomer, unassigned) [II-10]
DC50: 5 nM

CC1(C)CCC([C@H]2CCc3cc(O)ccc3[C@H]2c2ccc(N3CCC(CN4CCN(c5ccc6c(c5)CN([C@H]5CCC(=O)NC5=O)C6=O)CC4)CC3)cc2)CC1 (single isomer, unassigned) [Compound I-105]
DC50: 45.8 nM

O=C1CC[C@H](N2Cc3cc(N4CCN(CC5CCN(c6ccc([C@@H]7c8ccc(O)cc8CC[C@]78CCc7ccccc78)cc6)CC5)CC4)ccc3C2=O)C(=O)N1 [Compound I-262, (S)-3-(5-(4-((1-(4-((1R,1′S)-6′-hydroxy-2,3,3′,4′-tetrahydro-1′H-spiro[indene-1,2′-naphthalen]-1′-yl)phenyl)piperidin-4-yl)methyl)piperazin-1-yl)-1-oxoisoindolin-2-yl)piperidine-2,6-dione]
DC50: 2 nM
